Reference: patent publication US4623645A, “Substituted cephalosporin sulfoxides as anti-inflammatory and antidegenerative agents” (Merck & Co., Inc., priority 1983, dated 1986)

Target: T1, Human Polymorphonuclear Leukocyte Elastase (Homo sapiens, UniProt P08246)
T1 sequence (P08246 30-247 limits assumed): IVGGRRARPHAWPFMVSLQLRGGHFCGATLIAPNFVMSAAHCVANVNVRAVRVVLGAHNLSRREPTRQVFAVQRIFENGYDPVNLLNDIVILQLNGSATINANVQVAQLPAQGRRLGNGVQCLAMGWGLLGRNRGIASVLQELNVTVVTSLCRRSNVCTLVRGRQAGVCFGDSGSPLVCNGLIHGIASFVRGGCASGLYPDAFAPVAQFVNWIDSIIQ
Assay: Inhibition of human polymorphonuclear leukocyte elastase via hydrolysis of N-t-Boc-alanyl-alanyl-prolyl-alanine-p-nitroanilide (Boc-AAPAN)
Format: biochemical
Details: 50% inhibition of the enzyme activity 2 minutes after zero time; crude human PMN extract, 0.2 mM Boc-AAPAN, pH 7.5; read-out: ED50 (the source's name) (converted)

**Q.** With `CC(=O)OCC1=C(C(=O)OC(C)(C)C)N2C(=O)C(Cl)(Cl)C2[S+]([O-])C1` (stereo not shown) [7,7-dichloro / OtBu / H] as the molecule, how does the IC50 read?
**A.** 5.02 µM

**Q.** How did the IC50 turn out when `CC(=O)OCC1=C(C(=O)OC(C)(C)C)N2C(=O)[C@H](F)[C@H]2[S+]([O-])C1` (stereo partly drawn) [F / OtBu / H, t-Butyl 3-acetyloxymethyl-7α-fluoro-8-oxo-5-thia-1-azabicyclo[4.2.0]oct-2-ene-2-carboxylate-5-oxide] was run?
**A.** 5.76 µM

**Q.** With `CO[C@H]1C(=O)N2C(C(=O)OCc3ccccc3)=C(COC(C)=O)C[S+]([O-])[C@H]12` (stereo partly drawn) [OCH3 / OCH2 .phi. / H, Benzyl 3-acetyloxymethyl-7α-methoxy-8-oxo-5-thia-1-azabicyclo[4.2.0]oct-2-ene-2-carboxylate-5-oxide] as the molecule, how does the IC50 read?
**A.** 7.63 µM

**Q.** For `COC(=O)C1=C(COC(C)=O)C[S+]([O-])C2C(OC)C(=O)N12` (stereo not shown) [OCH3 / OCH3 / H], which IC50 is on record?
**A.** 25.2 µM
